Patent US10905736B2, “Ezetimibe-associated ApoA-I mimetic peptides showing enhanced synergism” (The Regents of the University of California, priority 2016, dated 2021)
“Also recorded” adds a separate entry of the source.

Columns and labels:
LDLR null mice = assay: Plasma hydroxyeicosatetraenoic acid (HETE) levels in LDLR null mice fed Western diet for two weeks; format: in vivo, mouse; settings: female LDLR null mice age 5-8 months, n=20 per group, WD two weeks, Tg6F 0.06% of diet, Ezetimibe 10 mg/kg/day
Protocol: The plasma from the mice in FIG. 1 was analyzed for 5-HETE as described (see, e.g., Navab et al. (2012) J. Lipid Res., 53: 437-445).
Female LDLR null mice age 5-8 months (n=20 per group) were fed standard mouse chow (Chow) or a Western diet high in cholesterol and fat (WD) or were fed WD+0.06% by weight of a freeze-dried concentrate of transgenic tomatoes expressing the apoA-I mimetic peptide 6F, which was prepared as previously described (see, e.g., Chattopadhyay et al. (2015) Pharma. Res. Per. 3: e00154; Chattopadhyay et al. (2016) J. Lipid Res. 57: 832-847; PCT Pub. Nos: WO 2013/148214 (PCT/US2013/031037), WO 2015/175968 (PCT/US2015/031134)) (Tg6F), or the mice were fed WD with Ezetimibe added to give a daily dose of 10 mg/kg body weight/day (WD+Ezetimibe), or the mice were fed WD with Tg6F added at 0.06% by weight plus Ezetimibe (each added separately to the diet) to give a daily dose of Ezetimibe of 10 mg/kg body weight; the Tg6F and Ezetimibe were mixed into WD as described previously (Chattopadhyay et al. (2016) J. Lipid. Res. 57: 832-847) (Combined Formulation), or the mice were fed WD to which was added ezetimibe-associated transgenic 6F peptide (Ez-tg6F) at 0.06% Tg6F by weight containing sufficient Ezetimibe to give a daily dose of 10 mg/kg body weight/day that was prepared as described herein. Specifically, the ezetimibe-associated Tg6F peptide (Ez-Tg6F) was made by adding the ezetimibe directly to a solution of ethyl acetate 5% acetic acid that had been incubated overnight at room temperature with freeze-dried tomato powder obtained from transgenic tomatoes expressing the 6F peptide, and which had been removed to a separate vessel as described previously (see, e.g., Chattopadhyay et al. (2015) Pharma. Res. Per. 3: e00154; Chattopadhyay et al. (2016) J. Lipid. Res. 57: 832-847) prior to addition of the ezetimibe. […] After feeding the diets for two weeks, the mice were bled and total plasma cholesterol levels were determined as described (Id.). […]

mice = settings: cited from earlier work

O=C1[C@H](CC[C@H](O)c2ccc(F)cc2)[C@@H](c2ccc(O)cc2)N1c1ccc(F)cc1 [Ezetimibe, (3R,4S)-1-(4-fluorophenyl)-3-[(3S)-3-(4-fluorophenyl)-3-hydroxypropyl]-4-(4-hydroxyphenyl)azetidin-2-one]
plasma 5-HETE levels (LDLR null mice; FIG. 7-8 / FIG. 17 G-H): equally effective; also recorded: significantly decreased plasma levels of 5-HETE
plasma 12-HETE levels (LDLR null mice; FIG. 9-10 / FIG. 17 I-J): without effect; also recorded: failed to significantly decrease plasma 12-HETE and 15-HETE levels; also recorded: did not significantly alter plasma 12-HETE or 15-HETE levels
plasma 15-HETE levels (LDLR null mice; FIG. 11-12 / FIG. 17 K-L): without effect; also recorded: failed to significantly decrease plasma 12-HETE and 15-HETE levels; also recorded: did not significantly alter plasma 12-HETE or 15-HETE levels
ED50 value (mice): 700 µg/kg/day
